Drawing on ChEMBL document CHEMBL3046079, “Synthesis, herbicidal activity, and mode of action of IR 5790” (J Agric Food Chem, 2001), this text covers fold change (FC) and solubility for three molecules.

Series [1] has as its target T1, Putative protoporphyrinogen IX oxidase (Cucumis sativus) (UniProt C6L817).
T1 sequence (whole entry): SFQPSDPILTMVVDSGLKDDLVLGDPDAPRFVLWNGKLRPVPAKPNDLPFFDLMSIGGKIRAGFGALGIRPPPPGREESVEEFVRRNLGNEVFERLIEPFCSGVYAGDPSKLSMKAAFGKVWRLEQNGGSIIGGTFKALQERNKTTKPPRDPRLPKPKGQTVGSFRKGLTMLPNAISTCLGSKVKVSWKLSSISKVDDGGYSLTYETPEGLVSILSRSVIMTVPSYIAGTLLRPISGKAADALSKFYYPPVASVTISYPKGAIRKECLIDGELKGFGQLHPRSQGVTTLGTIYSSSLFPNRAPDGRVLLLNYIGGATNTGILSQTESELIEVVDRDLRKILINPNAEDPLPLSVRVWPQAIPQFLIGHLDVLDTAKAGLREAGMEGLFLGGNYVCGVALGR
Description: Inhibition of protoporphyrin oxidase in Cucumis sativus (cucumber) cotyledon disc assessed as increase in extraplastidic protoporphyrin 9 accumulation at 100 uM incubated in dim light for 2 hr by HPLC analysis relative to control.

For series [2], the target named is T1, Putative protoporphyrinogen IX oxidase (Cucumis sativus). The series can be described thus: Inhibition of protoporphyrin oxidase in Cucumis sativus (cucumber) cotyledon disc assessed as increase in extraplastidic protoporphyrin 9 accumulation at 10 uM incubated in dim light for 2 hr by HPLC analysis relative to control.
The nature of series [3]: Aqueous solubility of the compound. In kind it is physicochemical. As to conditions: water.
Series [4] is described as follows: Solubility of the compound in organis solvent. Format: physicochemical.

≈ marks a conversion by molar mass, not a printed value. A value given as a limit tells only on which side of the number the result lay.

With `COC(=O)c1cc(Oc2ccc(C(F)(F)F)cc2Cl)ccc1[N+](=O)[O-]`, the values for the fold change (FC) in series [1] and in series [2] were 390 and 369, respectively.

A word on the solubility: it is the concentration that dissolves in the medium under given conditions. Read a high solubility as much dissolved substance. As for `C#CCOc1cc(-n2nc(C(C)(C)C)oc2=O)c(Cl)cc1Cl` [OXADIARGYL], the solubility is 0.37 µg/mL (≈ 1.08 µM) in series [3] and > 250000 µg/mL in series [4].

With `CC(C)Oc1cc(-n2nc(C(C)(C)C)oc2=O)c(Cl)cc1Cl` [OXADIAZON], the solubility was 0.7 µg/mL (≈ 2.03 µM) in series [3] and > 250000 µg/mL in series [4].
